Source: patent US20250101003A1, “SPIROCYCLIC CAV2.3 ANTAGONISTS” (LARIO THERAPEUTICS LIMITED, priority 2021, published 2025)

Biological target: Cav2.3 (Homo sapiens, UniProt Q15878)
Assay: Human Cav2.3 channel calcium-influx assay
Type: cell-based
Details: HEK-293 T-Rex/Kir2.1/Cav2.3e-β4-α2δ1 cells, Fluo8 fluorescence, without pluronic acid; read-out: Cav2.3 (pIC50) (converted)
Procedure: HEK-293 T-Rex cells were transfected with pcDNA3.1-Kir2.1 to generate a stable cell line. After antibiotic selection, the obtained stable pools were analysed using FLIPR^TETRA (membrane potential assay), and a limiting dilution was performed and a HEK-293 T-Rex/Kir2.1 clone was selected. The clone was transfected with pcDNA3.1-Cav2.3e and pBud-Cav-β4-α2δ1 to generate a stable cell line where the Cav2.3e expression is inducible. After antibiotic selection, functional clone pool analysis and two successive limiting dilutions, the final clone underwent a qPCR analysis and a biophysical and pharmacological validation using patch-clamp.
A compound plate, containing 10 test compounds in eight-points dose response with n=4, was prepared. Test compounds dose response curves were prepared in automated fashion in 100% DMSO at CyBio Felix and starting from a stock solution in 100% DMSO; a defined volume was serially moved into destination wells pre-filled with the desired DMSO volume; stock solution concentration volumes were dependent on the final compounds concentrations to be tested and the final DMSO content used in the assay. For the assay test compounds dose response curves ranged from 30 μM and half log dilution with 0.3% final DMSO. In order to obtain the 8-points dose response curve all the concentrations were created by starting from a 10 mM DMSO stock solution and then moving 9.5 μL into a destination well pre-filled with 20.5 μL of 100% DMSO and repeating this step seven times. This initial step was done into 96 MTP plates, 10 compounds/plate. One 384 MTP was then reformatted to contain all the 10 compounds at 8 concentrations, quadruplicate data points. This so obtained 384 MTP compound plate served as source plate in a “mother to child” process with a CyBi®-Well dispenser in which 0.7 μL of compounds were moved into a destination plate pre-filled with 57.6 μL of Tyrode's buffer 0 mM K+, thus obtaining 4× concentrated compounds solution. In columns 1-2 and 23-24 the control wells were added. Both “source” compound plate and “destination” compound plate were barcoded and a relationship between the two plates was thus generated.
The day before the experiment, cells were detached by gentle wash with DPBS, followed by 5 min incubation at 37° C. with Trypsin solution. Detached cells were diluted with OptiMEM+Doxycycline at 0.2 μg/mL, counted and plated in Poly-D-Lysine coated black/clear bottom (15.000 c/well in 20 μl/well) by the use of a MATRIX WellMate dispenser. Plates were placed into a humidified incubator at 37° C. with 5% CO2 until the experimental day. 24 h after seeding 10 μL/well of 1.5× Fluo8 NW dye solution prepared in Tyrode's buffer 0 mM K^+ were added on top of the seeding medium. Cell plates were incubated for 40-60 min at RT in the dark. We then Injected off-line 10 μL/well of test compounds and controls 4× concentrated in Tyrode's Buffer 0 mM K+ with the CyBi®-Well instrument. Cell plates were incubated 3 minutes at RT. Finally, we injected 20 μL/well of 3× concentrated activator solution (K20-Na130-Ca2 buffer: 20 mM KCl, 130 mM NaCl, 2 mM CaCl2, 10 mM HEPES, 10 mM Glucose, final concentrations, prepared starting from “KO-Na150-Ca2” and “K150-Na0-Ca2” buffers) at FDSS7000EX instrument and read emitted fluorescence for 130 seconds.
Data analysis was performed with Genedata Screener® software and reported compounds activity as % effect in relation to the normalization standards. The Kinetic Response Value (KRV) is calculated as follows:
KRV=Maximal fluorescence recorded from second 5 to second 130 minus baseline fluorescence, computed as average from second 1 to second 2, of the kinetic trace. The KRV was normalized versus Neutral Controls and Inhibitor Controls in order to obtain the Activity[%] for each well. […] Therefore, the compound activity values were scaled (based on the two references) to a common range (two-point normalization). […]

Cav2.3, sequence (Q15878 1-747 limits assumed): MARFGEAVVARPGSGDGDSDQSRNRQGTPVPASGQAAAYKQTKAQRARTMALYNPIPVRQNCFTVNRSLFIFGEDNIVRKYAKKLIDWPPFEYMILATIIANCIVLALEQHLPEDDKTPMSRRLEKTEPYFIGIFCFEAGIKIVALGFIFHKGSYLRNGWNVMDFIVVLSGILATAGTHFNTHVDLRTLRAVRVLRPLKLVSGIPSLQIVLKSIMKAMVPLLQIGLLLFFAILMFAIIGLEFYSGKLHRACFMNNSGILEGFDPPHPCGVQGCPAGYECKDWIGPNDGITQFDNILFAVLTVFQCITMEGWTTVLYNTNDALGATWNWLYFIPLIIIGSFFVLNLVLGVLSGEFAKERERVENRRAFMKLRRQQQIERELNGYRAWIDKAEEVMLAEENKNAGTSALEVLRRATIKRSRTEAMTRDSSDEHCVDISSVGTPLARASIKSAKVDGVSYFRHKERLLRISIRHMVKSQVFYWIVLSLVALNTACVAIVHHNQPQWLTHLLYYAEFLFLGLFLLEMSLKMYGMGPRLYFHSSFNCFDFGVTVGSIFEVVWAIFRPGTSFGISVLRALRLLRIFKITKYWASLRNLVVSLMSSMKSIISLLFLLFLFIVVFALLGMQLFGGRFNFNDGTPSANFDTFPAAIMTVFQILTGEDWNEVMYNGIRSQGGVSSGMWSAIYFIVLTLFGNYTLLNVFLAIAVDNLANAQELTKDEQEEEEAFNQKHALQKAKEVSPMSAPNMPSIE
Cav2.3, sequence (Q15878 1126-2313 limits assumed): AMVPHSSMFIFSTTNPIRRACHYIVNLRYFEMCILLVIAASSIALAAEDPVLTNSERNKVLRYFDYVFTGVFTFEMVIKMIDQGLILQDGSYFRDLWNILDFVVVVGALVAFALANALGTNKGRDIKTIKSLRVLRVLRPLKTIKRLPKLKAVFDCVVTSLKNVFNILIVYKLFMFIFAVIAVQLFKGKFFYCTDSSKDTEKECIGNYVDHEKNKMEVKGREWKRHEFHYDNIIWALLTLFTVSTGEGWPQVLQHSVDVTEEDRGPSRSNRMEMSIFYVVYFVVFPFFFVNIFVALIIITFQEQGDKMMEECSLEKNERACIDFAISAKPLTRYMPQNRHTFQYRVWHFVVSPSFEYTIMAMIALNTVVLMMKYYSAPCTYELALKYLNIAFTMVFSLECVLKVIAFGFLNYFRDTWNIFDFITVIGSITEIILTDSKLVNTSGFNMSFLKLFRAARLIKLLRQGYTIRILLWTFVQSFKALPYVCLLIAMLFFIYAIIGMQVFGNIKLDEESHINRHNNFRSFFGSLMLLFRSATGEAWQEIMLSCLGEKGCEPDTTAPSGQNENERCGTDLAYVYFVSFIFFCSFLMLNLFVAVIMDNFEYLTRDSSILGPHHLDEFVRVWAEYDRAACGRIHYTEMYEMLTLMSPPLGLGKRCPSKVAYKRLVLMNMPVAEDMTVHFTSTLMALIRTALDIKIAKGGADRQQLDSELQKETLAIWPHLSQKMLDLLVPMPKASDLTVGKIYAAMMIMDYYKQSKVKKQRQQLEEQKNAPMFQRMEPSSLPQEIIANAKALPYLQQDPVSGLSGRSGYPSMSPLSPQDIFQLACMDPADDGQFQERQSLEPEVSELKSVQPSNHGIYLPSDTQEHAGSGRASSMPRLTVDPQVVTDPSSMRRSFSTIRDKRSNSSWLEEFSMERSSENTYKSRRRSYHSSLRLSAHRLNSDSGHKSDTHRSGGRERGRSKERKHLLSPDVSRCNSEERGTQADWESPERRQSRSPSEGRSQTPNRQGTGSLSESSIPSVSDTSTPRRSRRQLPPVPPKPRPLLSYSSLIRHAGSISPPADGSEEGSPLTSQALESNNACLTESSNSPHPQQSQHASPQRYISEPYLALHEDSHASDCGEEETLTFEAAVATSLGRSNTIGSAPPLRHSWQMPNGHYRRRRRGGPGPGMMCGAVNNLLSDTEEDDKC

Structure (SMILES) | IC50 [µM]
CC1CC2(CCC2)CN1S(=O)(=O)c1ccncc1 (centres unmarked) [Example 11, 7-Methyl-6-(pyridin-4-ylsulfonyl)-6-azaspiro[3.4]octane] | 3.24
CC1CC2(CCC2)CN1S(=O)(=O)c1ccccn1 (centres unmarked) [Example 48, 7-Methyl-6-(pyridin-2-ylsulfonyl)-6-azaspiro[3.4]octane] | 15.8
Cc1cnc(S(=O)(=O)N2CC3(CCC3)CC2C)s1 (centres unmarked) [Example 95, 5-Methyl-2-((7-methyl-6-azaspiro[3.4]octan-6-yl)sulfonyl)thiazole] | 7.76
CC1CC2(CCC2)CN1S(=O)(=O)c1ccc(Cl)s1 (centres unmarked) [Example 108, 6-((5-Chlorothiophen-2-yl)sulfonyl)-7-methyl-6-azaspiro[3.4]octane] | 11.5
CC1CC2(CCC2)CN1S(=O)(=O)c1ccc(C#N)s1 (centres unmarked) [Example 8, 5-((7-Methyl-6-azaspiro[3.4]octan-6-yl)sulfonyl)thiophene-2-carbonitrile] | 2.57
Cc1noc(C)c1C(=O)N1CCc2ccc(S(=O)(=O)N3CC4(CCC4)CC3C)cc2C1 (centres unmarked) [Example 93, (3,5-Dimethylisoxazol-4-yl)(7-((7-methyl-6-azaspiro[3.4]octan-6-yl)sulfonyl)-3,4-dihydroisoquinolin-2(1H)-yl)methanone] | 2.04
CC1CC2(CCC2)CN1S(=O)(=O)c1ccc2c(c1)CN(C(=O)C(F)(F)F)CC2 (single isomer, unassigned) [Example 19, 2,2,2-Trifluoro-1-(7-((7-methyl-6-azaspiro[3.4]octan-6-yl)sulfonyl)-3,4-dihydroisoquinolin-2(1H)-yl)ethan-1-one] | 1.78
CC1CC2(CCC2)CN1S(=O)(=O)c1ccc2ccoc2c1 (single isomer, unassigned) [Example 16, 6-(Benzofuran-6-ylsulfonyl)-7-methyl-6-azaspiro[3.4]octane] | 4.79
O=S(=O)(c1cccs1)N1CC2(CCC2)CC1CO (centres unmarked) [Example 42, (6-(Thiophen-2-ylsulfonyl)-6-azaspiro[3.4]octan-7-yl)methanol] | 24.5
CC1CCC2(CCC2)CN1S(=O)(=O)c1cccs1 (centres unmarked) [Example 60, 7-Methyl-6-(thiophen-2-ylsulfonyl)-6-azaspiro[3.5]nonane] | 4.79
CC1CC2(CCC2)CN1S(=O)(=O)c1scnc1CO (centres unmarked) [Example 90, (5-((7-Methyl-6-azaspiro[3.4]octan-6-yl)sulfonyl)thiazol-4-yl)methanol] | 11.2
CC1CC2(CCC2)CN1S(=O)(=O)c1cccc2c1OC(F)(F)O2 (centres unmarked) [Example 41, 6-((2,2-Difluorobenzo[d][1,3]dioxol-4-yl)sulfonyl)-7-methyl-6-azaspiro[3.4]octane] | 8.32
CC1CC2(CCC2)CN1S(=O)(=O)c1ccc2c(c1)OCCCO2 (centres unmarked) [Example 4, 6-((3,4-Dihydro-2H-benzo[b][1,4]dioxepin-7-yl)sulfonyl)-7-methyl-6-azaspiro[3.4]octane] | 4.17
CC1CC2(CCC2)CN1S(=O)(=O)c1ccc2ccoc2c1 (centres unmarked) [Example 15, 6-(Benzofuran-6-ylsulfonyl)-7-methyl-6-azaspiro[3.4]octane] | 1.86
CC1CC2(CCC2)CN1S(=O)(=O)c1cc(-c2ccccc2)cs1 (centres unmarked) [Example 44, 7-Methyl-6-((4-phenylthiophen-2-yl)sulfonyl)-6-azaspiro[3.4]octane] | 6.76
CCC1CC2(CCCC2)CN1S(=O)(=O)c1ccc2c(c1)CN(C(=O)C(F)(F)F)CC2 (centres unmarked) [Example 101, 1-(7-((3-Ethyl-2-azaspiro[4.4]nonan-2-yl)sulfonyl)-3,4-dihydroisoquinolin-2(1H)-yl)-2,2,2-trifluoroethan-1-one] | 2.45
CCC1CC2(CCC2)CN1S(=O)(=O)c1cccs1 (centres unmarked) [Example 69, 7-Ethyl-6-(thiophen-2-ylsulfonyl)-6-azaspiro[3.4]octane] | 2.51
CCOc1ccc2nc(S(=O)(=O)N3CC4(CCC4)CC3C)sc2c1 (centres unmarked) [Example 96, 6-Ethoxy-2-((7-methyl-6-azaspiro[3.4]octan-6-yl)sulfonyl)benzo[d]thiazole] | 9.33
Cc1ccnc2cc(S(=O)(=O)N3CC4(CCC4)CC3C)ccc12 (single isomer, unassigned) [Example 82, 4-methyl-7-((7-methyl-6-azaspiro[3.4]octan-6-yl)sulfonyl)quinoline] | 10.7
CCC1CC2(CCC2)CN1S(=O)(=O)c1ccnc(C)c1 (centres unmarked) [Example 92, 7-Ethyl-6-((2-methylpyridin-4-yl)sulfonyl)-6-azaspiro[3.4]octane] | 2.45
CC1(C)CC2(CCC2)CN1S(=O)(=O)c1ccsc1 [Example 49, 7,7-Dimethyl-6-(thiophen-3-ylsulfonyl)-6-azaspiro[3.4]octane] | 3.89
CC1CC2(CCC2)CN1S(=O)(=O)c1ccc2ccoc2c1 (single isomer, unassigned) [Example 17, 6-(benzofuran-6-ylsulfonyl)-7-methyl-6-azaspiro[3.4]octane] | 1.32
CCC1CC2(CCC2)CN1S(=O)(=O)c1cccs1 (single isomer, unassigned) [Example 70, 7-Ethyl-6-(thiophen-2-ylsulfonyl)-6-azaspiro[3.4]octane] | 9.55
CCC1CC2(CCC2)CN1S(=O)(=O)c1ccc2c(c1)S(=O)(=O)CC2 (single isomer, unassigned) [Example 62, 6-((7-Ethyl-6-azaspiro[3.4]octan-6-yl)sulfonyl)-2,3-dihydrobenzo[b]thiophene 1,1-dioxide] | 0.676
Cc1ccc(S(=O)(=O)N2CC3(CCC3)CC2C)o1 (single isomer, unassigned) [Example 55, 7-methyl-6-((5-methylfuran-2-yl)sulfonyl)-6-azaspiro[3.4]octane] | 4.07
Cc1ccnc2cc(S(=O)(=O)N3CC4(CCC4)CC3C)ccc12 (centres unmarked) [Example 80, 4-Methyl-7-((7-methyl-6-azaspiro[3.4]octan-6-yl)sulfonyl)quinoline] | 2.82
CCC1CC2(CCC2)CN1S(=O)(=O)c1ccc2ccoc2c1 (centres unmarked) [Example 91, 6-(Benzofuran-6-ylsulfonyl)-7-ethyl-6-azaspiro[3.4]octane] | 2.4
CC1CC2(CCC2)CN1S(=O)(=O)c1cc2oc(=O)[nH]c2cc1Cl (centres unmarked) [Example 56, 5-Chloro-6-((7-methyl-6-azaspiro[3.4]octan-6-yl)sulfonyl)benzo[d]oxazol-2(3H)-one] | 8.32
CCC1CC2(CCCC2)CN1S(=O)(=O)c1cccs1 (single isomer, unassigned) [Example 98, 3-Ethyl-2-(thiophen-2-ylsulfonyl)-2-azaspiro[4.4]nonane] | 14.5
